Calls of active or inactive are those of the source. No cut-off for these calls is given here.
Assays:
[1] = Drug uptake in tumor of nude mouse xenografted with human MCF7 cells at 75 mg/kg, po qd for 5 days measured at 1 hr post last dose; type: ADME, organism-based, Neoplasm; settings: in vivo
[2] = target: T1, Lysine-specific demethylase 2A (Homo sapiens, UniProt Q9Y2K7); assay: Inhibition of KDM2A (unknown origin)
T1 sequence (Q9Y2K7 whole entry): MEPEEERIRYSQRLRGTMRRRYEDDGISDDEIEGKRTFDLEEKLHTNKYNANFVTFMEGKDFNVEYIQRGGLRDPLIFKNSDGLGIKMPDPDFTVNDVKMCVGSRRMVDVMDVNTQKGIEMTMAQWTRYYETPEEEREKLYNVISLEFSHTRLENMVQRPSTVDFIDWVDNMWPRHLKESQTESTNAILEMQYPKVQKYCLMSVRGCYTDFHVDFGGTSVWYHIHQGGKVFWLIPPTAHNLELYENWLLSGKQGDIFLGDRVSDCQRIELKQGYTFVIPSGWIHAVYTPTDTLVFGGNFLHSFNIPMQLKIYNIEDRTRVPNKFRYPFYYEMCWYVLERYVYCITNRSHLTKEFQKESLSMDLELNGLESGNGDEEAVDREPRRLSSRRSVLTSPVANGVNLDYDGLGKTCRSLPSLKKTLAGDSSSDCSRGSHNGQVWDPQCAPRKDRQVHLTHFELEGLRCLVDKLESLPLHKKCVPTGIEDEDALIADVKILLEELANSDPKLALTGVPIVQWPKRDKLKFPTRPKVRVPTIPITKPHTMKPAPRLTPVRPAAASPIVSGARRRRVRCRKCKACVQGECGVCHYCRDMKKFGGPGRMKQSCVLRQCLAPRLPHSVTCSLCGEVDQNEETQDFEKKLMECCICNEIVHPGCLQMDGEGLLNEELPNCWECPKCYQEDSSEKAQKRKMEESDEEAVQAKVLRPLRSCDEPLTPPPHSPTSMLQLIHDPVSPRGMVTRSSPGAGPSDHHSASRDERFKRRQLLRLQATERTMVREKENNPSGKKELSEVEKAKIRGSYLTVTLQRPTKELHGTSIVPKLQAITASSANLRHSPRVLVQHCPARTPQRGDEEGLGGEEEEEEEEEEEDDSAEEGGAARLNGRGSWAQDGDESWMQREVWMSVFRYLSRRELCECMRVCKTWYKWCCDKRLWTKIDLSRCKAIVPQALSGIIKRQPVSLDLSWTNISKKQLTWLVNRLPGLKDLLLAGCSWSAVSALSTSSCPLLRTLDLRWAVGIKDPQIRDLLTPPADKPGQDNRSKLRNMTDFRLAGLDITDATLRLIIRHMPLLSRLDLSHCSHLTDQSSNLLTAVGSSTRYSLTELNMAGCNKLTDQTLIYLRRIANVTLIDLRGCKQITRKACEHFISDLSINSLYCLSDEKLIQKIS

[3] = Oral bioavailability in CD-1 mouse at 10 mg/kg; type: ADME, organism-based; settings: in vivo
[4] = target: T2, Lysine-specific demethylase 4D (Homo sapiens, UniProt Q6B0I6); assay: Inhibition of KDM4D (unknown origin)
T2 sequence (Q6B0I6 whole entry): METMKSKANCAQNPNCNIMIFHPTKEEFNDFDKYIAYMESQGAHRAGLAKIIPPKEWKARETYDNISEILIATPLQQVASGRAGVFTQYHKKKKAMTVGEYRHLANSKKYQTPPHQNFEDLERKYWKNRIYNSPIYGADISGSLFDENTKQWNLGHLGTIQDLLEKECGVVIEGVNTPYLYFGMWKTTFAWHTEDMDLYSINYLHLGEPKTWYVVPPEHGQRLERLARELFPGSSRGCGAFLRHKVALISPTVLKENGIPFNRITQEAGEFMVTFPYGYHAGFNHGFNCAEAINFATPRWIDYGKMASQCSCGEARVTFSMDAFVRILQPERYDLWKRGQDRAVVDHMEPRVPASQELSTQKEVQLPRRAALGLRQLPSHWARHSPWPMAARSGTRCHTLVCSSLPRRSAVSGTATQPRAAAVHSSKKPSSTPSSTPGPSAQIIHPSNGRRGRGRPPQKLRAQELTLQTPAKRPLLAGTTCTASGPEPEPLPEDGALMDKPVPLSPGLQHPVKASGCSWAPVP

[5] = target: Lysine-specific histone demethylase 1A (Homo sapiens, UniProt O60341); assay: Inhibition of KDM1A (unknown origin)
[6] = Protein binding in mouse plasma; type: ADME, cell-free; settings: read-out: PPB (converted)
[7] = AUC in CD-1 mouse at 10 mg/kg, po; type: ADME, organism-based; settings: in vivo
[8] = Kinetic solubility of the compound; type: physicochemical
[9] = tested on: Mus musculus; assay: In vivo inhibition of KDM5 in nude mouse xenografted with human MCF7 cells assessed as increase in H3K4me3 level in tumor at 75 mg/kg, po qd for 5 days measured up to 24 hrs post last dose by Western blot analysis; type: functional, organism-based
[10] = tested on: Mus musculus; assay: In vivo inhibition of KDM5 in nude mouse xenografted with human MCF7 cells assessed as increase in H3K4me3 level in tumor at 75 mg/kg, po qd for 5 days measured at 0.5 hrs post last dose by Western blot analysis relative to control; type: functional

- Drug uptake [1]: Active
- IC50 [2]: 820 nM
- bioavailability [3]: 55%
- IC50 [4]: 110 nM
- IC50 [5]: > 40 µM
- fraction unbound [6]: 0.009
- AUC [7]: 44000 ng·h/mL
- Kinetic_solubility [8]: Soluble
Compound: Cc1cc(Cl)ccc1COc1ccnn1-c1cc(C(=O)O)ccn1
- inhibition [9]: Active
- fold change (FC) [10]: >2
